Results from ChEMBL document CHEMBL3603799, “3-Hydroxy-4-pyridinone derivatives designed for fluorescence studies to determine interaction with amyloid protein as well as cell permeability” (Bioorg Med Chem Lett, 2015).

Target: Amyloid-beta precursor protein (Homo sapiens) (UniProt P05067)
Assay: Binding affinity to amyloid beta (1 to 40) (unknown origin) assessed as increase in fluorescence after 3 hrs by UV-spectra analysis

Amyloid-beta precursor protein (Homo sapiens), sequence (P05067 whole entry): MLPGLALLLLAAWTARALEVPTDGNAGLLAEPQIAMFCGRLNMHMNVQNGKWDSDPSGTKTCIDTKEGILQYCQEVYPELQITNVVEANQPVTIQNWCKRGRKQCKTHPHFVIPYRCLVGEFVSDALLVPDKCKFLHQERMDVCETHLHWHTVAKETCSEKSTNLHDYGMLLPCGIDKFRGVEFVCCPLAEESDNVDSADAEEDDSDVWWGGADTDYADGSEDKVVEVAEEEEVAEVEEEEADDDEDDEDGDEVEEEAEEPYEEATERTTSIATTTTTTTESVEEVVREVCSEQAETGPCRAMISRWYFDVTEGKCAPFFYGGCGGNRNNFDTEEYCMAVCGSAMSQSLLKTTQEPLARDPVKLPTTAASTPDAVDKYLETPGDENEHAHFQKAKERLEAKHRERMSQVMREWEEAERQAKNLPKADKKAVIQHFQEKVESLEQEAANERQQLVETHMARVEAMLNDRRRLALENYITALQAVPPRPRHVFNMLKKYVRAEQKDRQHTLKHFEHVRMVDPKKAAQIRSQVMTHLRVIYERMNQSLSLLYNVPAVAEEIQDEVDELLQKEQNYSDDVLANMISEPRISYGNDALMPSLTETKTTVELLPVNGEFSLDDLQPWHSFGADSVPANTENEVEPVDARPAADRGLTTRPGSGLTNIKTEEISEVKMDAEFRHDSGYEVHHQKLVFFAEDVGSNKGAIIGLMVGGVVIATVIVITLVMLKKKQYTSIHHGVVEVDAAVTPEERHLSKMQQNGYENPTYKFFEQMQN

Activity	Compound
50%	Cc1c(O)c(=O)ccn1-c1ccc(-c2nc3ccccc3s2)cc1
3%	Cc1c(O)c(=O)ccn1-c1ccc(-c2nc3ccccc3o2)cc1
